Reference: patent publication US8653049B2, “Normuramyl glycopeptide compounds” (priority 2008, dated 2014)
Entries after “also recorded” stand apart in the source; their conditions may differ. Where two headings read alike, the source gives them in different places.

Key:
[1] = rabbits, 3 rabbits per group
Procedure: The test was conducted in an authorised laboratory, ITEST plus s.r.o., Bilé Vchýnice 10, 533 13 Vápno u Prelouce, Czech Republic, according to guide-lines CL 2005.
Rabbits (New Zeeland albino, 4-6 kg, 3 animals per group) were used for testing.
Liposomal preparations of muramyl glycopeptide derivatives were administered s.c. (100 nmol/kg). Empty liposomes were used as negative control and the liposomal as well as the free form of muramyl dipeptide (MDP) (25 μg/kg, corresponding to 50.7 nmol/kg) served as positive control. Temperature was measured in 1, 2, 3, 4,6 and 24 hour intervals.
Empty liposomes were used as negative control; and liposomal as well as free muramyl dipeptide (MDP) (50.7 nmol/kg) served as positive control. B30-norAbu-MDP (MT01, structure on page 5) served as additional control. Temperature was measured in 1, 2, 3, 4, 6 and 24 h intervals. The preparation passed the test if the Sum of ΔTmax remained below 1.1° C. (3 rabbits per group)

[2] = tested on: r-hsp90 (Candida albicans hsp90) specific IgG antibodies; experiment: Proteoliposome vaccine against C. albicans hsp90: antibody (humoral) response, ELISA; format: in vivo, BALB/c mice; conditions: Experiment 12.2; liposomal compound (5%) + Ni-HSP90, boost day 14; FIG. 13
Procedure: Proteoliposomes were prepared by coupling recombinant hsp90 antigen (r-hsp90, 6×HISTag) via a metal chelating lipid to liposomes containing muramyl glycopeptide derivatives as adjuvant component. BALB/c […] mice 4 to 5 weeks old (female 20±2 g, 5 animal per group) were immunized by the intradermal route either with 20 μg of free or liposomal r-hsp90 (volume of 60 μl) either with or without L18-norAbu-MDP and boosted 21 days later by the same composition of experimental vaccine. FCA was used as positive control r-hsp90. Liposomal vaccine composition 20 μg of rHSP90 antigen, 5% metallochelating lipid, 5% particular MT analogue, 90% phospolipids.
Blood samples were collected from the tail vein into heparinised capillary PCV tubes. After centrifugation, the upper part of the tube, containing […] blood serum, was cut off, thrown into […] diluting solution and thoroughly shaken. Thus, a basic dilution of 1:33 was obtained. The pre-diluted sera were kept at −20° C. Blood samples were collected before the first immunization, 2 weeks thereafter and subsequently at weekly intervals up to the 4th week after the second immunisation. Specific IgG antibodies in blood serum samples were determined by the standard indirect ELISA procedure. The data obtained were processed statistically using the non-parametric Mann-Whitney U-test.
Proteoliposomes with muramyl glycopeptide derivatives were prepared as described above, but the boost was carried out already after 14 days. The liposomal vaccine composition was as for Experiment Set 1: 20 μg of rHSP90 antigen, 5% metallochelating lipid, 5% particular MT analogue, 90% phospolipids.
Controls: Aluminum hydroxide (AlOH) and Freund complete adjuvans (FCA) were used as positive controls. PBS with empty liposomes was used as negative control (control). Humoral response was tested at day 14 after vaccination (post priming) and at day 20 after vaccination (post booster). Antibody titres were wer assayed by ELISA.

[3] = tested on: NK sensitive K562 cell line; experiment: NK cell cytotoxicity of human PBMC, 51Cr-release against K562; format: cell-based; conditions: range 0.1 μM-100 μM; FIG. 28
Procedure: Ex vivo effects of test compounds on NK cells were evaluated on human peripheral blood mononuclear cells (PBMC). The NK cell cytotoxicity of healthy donors in the presence or absence of test compounds was measured in standard 4 hrs ^51Cr-release assay against NK sensitive K562 cell line in effector (PBMC) to target (K562) ratio 16:1. Test compounds were added at a concentration of 10^−7 mol/ml.
Testing of compounds 23, 24, 32, 33, 40 and 41 for their capacity to induce cell-mediated cytotoxicity of human eripheral blood mononuclear cells (PBMCs) is shown in FIGS. 27 and 28. All donors were healthy. […] The cytotoxicity of untreated controls (30.5%) was renormalized to 100%.

[4] = tested on: GM-CFC progenitors in bone marrow; experiment: GM-CFC recovery, test compounds before sub-lethal irradiation; format: in vivo, ICR/CD-1 mice; conditions: s.c. 100 nmol 24 h before 6 Gy, day 13; FIGS. 33-35
Procedure: (§1) Institite of Cancer Research (ICR/CD-1) mice (female, age of 3 months, 3-4 per group) were stimulated by s.c. administration of test compounds (volume of 200 μl, 100 nmol per dose) 24 h before sublethal γ-irradiation (6 Gy, ^60Co γray source Chisostat, Chirana Ltd., Czech Republic, at a dose of 0.285 Gy/min.). Mice were sacrified at day 13 and recovery of GM-CFC in femour was assayed by counting of colonies (CFC) formed after cultivation in medium. Non-irradiated mice were used as control for normal GM-CFC count in femour. PBS and empty liposomes were used as controls for spontaneous recovery. Liposomal MDP was used as reference standard.
(§2) The following parameters of hemopoiesis were evaluated: • a) Blood leukocyte counts and bone marrow cellularity. Blood leukocytes (samples of blood drawn from an incision of the tail vein) and nucleated cell elements of the femoral bone marrow (femoral diaphyses flushed with saline) were estimated by means of Coulter Counter (Model ZN, Coulter Electronics). • b) Colony-forming cells in spleen. Endogenous spleen colony-forming units (E-CFUs) were measured on day 9 post the whole-body irradiation with 6.5 Gy (5 mice per group) according to Till and McCulloch. • c) GM-CFC progenitors in bone marrow. Femoral bone marrow cells were obtained from mice by flushing the femour with sterile IMDM medium. Harvested cells were calculated and diluted to 1.5×10^5 cells/ml and plated in triplicate in a semisolid environment created by plasma clot (Iscovess modification of Dulbecco's medium, 20% of fetal calf serum, 10% of colony-stimulating factor, 10% of citrate plasma, and CaCl2 1.5 mg/ml). The cultures were incubated for 7 days at 37° C. in 5% CO2. Colonies of at least 50 cells were scored at 40× magnification.
Statistical significance between individual experimental groups of mice in hemopoietic parameters was calculated by one-way analysis of variance. The Newman-Keuls test for comparison of all pairs of columns and the Dunnett test for comparison of all columns with the control column were used in the analysis.

[5] = tested on: GM-CFC progenitors in bone marrow; experiment: GM-CFC recovery, test compounds after sub-lethal irradiation; format: in vivo, ICR/CD-1 mice; conditions: s.c. 100 nmol 24 h after 6 Gy; FIG. 36
Procedure: as §1, §2
The method is exactly as described above except that the test compounds (volume of 200 μl, 100 nmol per dose) were administered 24 h after sublethal γ-irradiation (6 Gy).

Salmonella enteritidis = experiment: Stimulation of innate immunity against Salmonella Enteritidis; conditions: liposomal, 20 nmol per dose p.o. 72 and 24 h before infection (LD50); 5 mice
[6] = tested on: Friend leukemia virus (FLV); experiment: Friend leukemia virus infection: survival, TER-119+ cells, spleen; conditions: for clonal expansion of TER-119+ erythroleukaemia cells in spleen / spleen size (weight): day 16; for clonal expansion of TER-119+ erythroleukaemia cells in spleen: FIG. 24; for spleen size (weight): FIG. 25
[7] = tested on: NK-sensitive YAC1 target cells; experiment: NK cell-mediated cytotoxicity of spleen mononuclear cells, 51Cr-release against YAC1; conditions: FLV-inoculated mice, day 16, 18 h incubation with YAC1; FIG. 26
[8] = tested on: myelin basic protein induced EAE; experiment: Experimental allergic encephalomyelitis (EAE), Th1 adjuvant activity; format: in vivo, guinea pigs; conditions: for Positive animals (%) (incidence of EAE): 50 μg myelin basic protein + 1 mg test compound in FIA, footpads, up to day 21, FCA positive control
bone-marrow cells = experiment: Restoration of bone-marrow proliferation in azathioprine-suppressed mice; format: in vivo, CBA/J mice; set-up: key: +: restoration under the level of intact bone-marrow response; ++: restoration above the level of intact bone-marrow response; conditions: two i.v. doses of 200 nmol 30 and 6 h before oral azathioprine 5 mg per mouse; bone marrow 66 h after
Procedure: CBA/J male mice 8 weeks old, weighing 18-20 g were administered two i.v. doses of 200 nmol test substance per mouse 30 and 6 h prior to oral application of azathioprine (Imuran Wellcome, 5 mg per mouse in a volume of 0.5 ml distilled water). Bone marrow (lavage of femurs) was sampled 66 h after the application of azathioprine. Pooled suspensions of bone-marrow cells from 3 mice were cultivated in RPMI-1640 medium with 5% of fetal bovine serum (both from Sigma) at a concentration of 2×10^5 cells/0.2 ml either without mitogen (spontaneous proliferation) or in the presence of T (phytohemagglutinin, PHA Murex, 50 μg/ml; concanavalin A, Con A Sigma, 1, 2.5 or 5 μg/ml) or B (lipopolysaccharide, LPS E. coli O55 Difco, 5 μg/ml) mitogens for 48 h at 37° C. in 5% CO2. Proliferative activity was measured by incorporation of 3H-thymidine (1 μCi/well) and expressed as stimulation index SI=mean cpm cultures with mitogen/mean cpm controls without mitogen. Statistical significance of stimulation was evaluated by the Student's t test.

[9] = liposomal preparations s.c. 100 nmol/kg, passes if below 1.1° C.

SMILES	+ΔTmax (Sum of ΔTmax) [1, 9]	dose response of NK cell activity [3]	Day 6 Intest.: clear/infected/dead (Salmonella enteritidis)	Day 6 Liver: clear/infected/dead (Salmonella enteritidis)	Day 6 Lungs: clear/infected/dead (Salmonella enteritidis)	Day 6 Spleen: clear/infected/dead (Salmonella enteritidis)	Day 12 Intest.: clear/infected/dead (Salmonella enteritidis)	Day 12 Liver: clear/infected/dead (Salmonella enteritidis)	Day 12 Lungs: clear/infected/dead (Salmonella enteritidis)	Day 12 Spleen: clear/infected/dead (Salmonella enteritidis)	clonal expansion of TER-119+ erythroleukaemia cells in spleen [6]	spleen size (weight) [6]	Positive animals (%) (incidence of EAE) [8]	Restoration of BM Proliferation in Immunosuppressive Therapy (bone-marrow cells)	further results
CCCCCCCCCCCCCCCCCC(=O)NCCCC[C@H](NC(=O)CC[C@@H](NC(=O)[C@H](CC)NC(=O)CO[C@H]1[C@H](O[C@@H]2O[C@H](CO)[C@@H](O)[C@H](O)[C@H]2NC(C)=O)[C@@H](CO)OC(O)[C@@H]1NC(C)=O)C(N)=O)C(=O)O (stereo partly drawn) [Compound 40, N-[2-O-(2-Acetamido-2-deoxy-βD-glucopyranosyl-(1→4)-2-acetamido-2,3-dideoxy-D-glucopyranose-3-yl)-glycoloyl]-L-α-aminobutanoyl-D-isoglutaminyl-L-lysine(stearoyl)]	0.6 °C	negative dose response	4/1/0	4/1/0	4/1/0	5/0/0	0/2/3	1/1/3	1/1/3	1/1/3	dose-dependent, positive effect	spleen size slightly lower than the control	–	–	antibody response to r-hsp90 proteoliposomes [2]: strong and comparable to AlOH; GM-CFC progenitor cells in bone marrow [4]: acceptable performance; GM-CFC progenitor cells in bone marrow [5]: strongest performers; also recorded: strongest effect; also recorded: one of the best effects; NK cell activity (cell-mediated cytotoxicity of SMCs) [7]: stimulate NK cell functional activity
CCCCCCCCCCCCCCC(CCCCCCCCCCCCCC)C(=O)NCCCC[C@H](NC(=O)CC[C@@H](NC(=O)[C@H](CC)NC(=O)CO[C@H]1[C@H](O[C@@H]2O[C@H](CO)[C@@H](O)[C@H](O)[C@H]2NC(C)=O)[C@@H](CO)OC(O)[C@@H]1NC(C)=O)C(N)=O)C(=O)O (stereo partly drawn) [Compound 41, N-[2-O-(2-Acetamido-2-deoxy-β-D-glucopyranosyl-(1→4)-2-acetamido-2,3-dideoxy-D-glucopyranose-3-yl)-glycoloyl]-L-α-aminobutanoyl-D-isoglutaminyl-L-lysine(2-tetradecylhexadecanoyl)]	0.8 °C	negative dose response	2/3/0	2/3/0	4/1/0	2/3/0	1/2/2	2/1/2	2/1/2	2/1/2	pronounced opposite effect	increased spleen size	–	–	survival, late phase (days 55 and 59), long-term ([6]; 10 μmol i.p., non-liposomal, control 0%, FIG. 23): ensure long-term survival; survival, early phase (day 43) ([6]; 10 μmol i.p., non-liposomal, saline control 82%, FIG. 23): survival rate worse than control
CC(=O)N[C@H]1[C@H](O[C@H]2[C@H](O[C@H](C)C(=O)N[C@@H](C)C(=O)N[C@H](CCC(=O)O)C(N)=O)[C@@H](NC(C)=O)C(O)O[C@@H]2CO)O[C@H](CO)[C@@H](O)[C@@H]1O (stereo partly drawn) [GMDP, glucosaminylmuramyl dipeptide]	–	–	–	–	–	–	–	–	–	–	–	–	65%	++	–
CC(=O)N[C@@H]1[C@@H](O[C@H](C)C(=O)N[C@@H](C)C(=O)N[C@H](CCC(=O)O)C(N)=O)[C@H](O)[C@@H](CO)O[C@H]1O [MDP, muramyldipeptide]	–	–	–	–	–	–	–	–	–	–	–	–	58%	+	+ΔTmax (Sum of ΔTmax) ([1]; MDP positive control 25 μg/kg (50.7 nmol/kg), liposomal or free): 2.9 °C
CC[C@H](NC(=O)CO[C@H]1[C@H](O[C@@H]2O[C@H](CO)[C@@H](O)[C@H](O)[C@H]2NC(C)=O)[C@@H](CO)OC(O)[C@@H]1NC(C)=O)C(=O)N[C@H](CCC(=O)O)C(N)=O (stereo partly drawn) [norAbu-GMDP]	–	–	–	–	–	–	–	–	–	–	–	–	90%	++	Th1 stimulation (EAE) ([8]; guinea pigs sensitized with bovine MBP in IFA + compound, FIG. 31): superior to MDP and GMDP as Th1 adjuvants
CCC(NC(=O)COC1C(O)C(CO)OC(O)C1NC(C)=O)C(=O)NC(CCC(=O)O)C(N)=O (stereo not drawn) [norAbu-MDP]	–	–	–	–	–	–	–	–	–	–	–	–	–	+	–
